ChEMBL document CHEMBL1151502, “New base-altered adenosine analogues: Synthesis and affinity at adenosine A1 and A2A receptors” (Bioorg Med Chem Lett, 1997)

Columns and labels:
[1] = target: Adenosine receptors; A1 & A2a (Rattus norvegicus) (UniProt P25099+P30543); assay: Selective ratio of A1 receptor to A2A receptor; type: protein assay
[2] = target: T1, Adenosine receptor A1 (Rattus norvegicus, UniProt P25099); assay: Binding affinity at Adenosine A1 receptor in rat brain membranes by [3H](R)-PIA displacement.; type: cell membranes
T1 sequence (P25099 whole entry): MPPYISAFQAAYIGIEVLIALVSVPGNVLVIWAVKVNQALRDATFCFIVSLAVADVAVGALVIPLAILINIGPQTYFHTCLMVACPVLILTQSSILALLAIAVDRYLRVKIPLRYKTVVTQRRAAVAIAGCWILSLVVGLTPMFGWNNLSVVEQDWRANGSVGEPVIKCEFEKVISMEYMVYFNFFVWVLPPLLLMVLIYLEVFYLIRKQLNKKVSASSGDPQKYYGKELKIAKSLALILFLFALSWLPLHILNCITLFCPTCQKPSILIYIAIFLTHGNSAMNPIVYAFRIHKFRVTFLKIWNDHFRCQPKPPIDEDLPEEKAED

[3] = target: Adenosine receptor A2a (Rattus norvegicus, UniProt P30543); assay: Displacement of [3H]-CGS- 21680 from Adenosine A2 receptor of rat striatal membranes; type: cell membranes, Membrane
Adenosine receptor A2a, sequence (P30543 whole entry): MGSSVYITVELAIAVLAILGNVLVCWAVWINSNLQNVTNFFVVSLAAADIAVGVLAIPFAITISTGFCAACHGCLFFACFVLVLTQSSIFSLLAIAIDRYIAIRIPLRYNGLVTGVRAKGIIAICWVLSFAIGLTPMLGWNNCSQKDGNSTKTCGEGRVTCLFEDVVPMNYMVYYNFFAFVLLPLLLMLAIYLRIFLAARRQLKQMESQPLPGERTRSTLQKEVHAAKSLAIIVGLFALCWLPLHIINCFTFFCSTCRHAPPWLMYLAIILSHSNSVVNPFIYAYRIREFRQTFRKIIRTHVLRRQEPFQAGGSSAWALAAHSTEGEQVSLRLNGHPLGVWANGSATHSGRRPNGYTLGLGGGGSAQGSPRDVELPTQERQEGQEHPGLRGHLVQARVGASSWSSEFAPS

[4] = target: Adenosine receptor A2a (Rattus norvegicus) (UniProt P30543); assay: Displacement of [3H]-CGS- 21680 from Adenosine A2 receptor in rat striatal membranes at 10e-4 M; type: cell membranes; details: Membrane
Adenosine receptor A2a (Rattus norvegicus), sequence (P30543 whole entry): as above

[5] = target: Adenosine receptor A1 (Rattus norvegicus) (UniProt P25099); assay: Binding affinity for Adenosine A1 receptor
[6] = target: Adenosine receptor A2a (Rattus norvegicus) (UniProt P30543); assay: Displacement of [3H]-CGS- 21680 from Adenosine A2 receptor in rat striatal membranes at 10e-5 M; type: cell membranes; details: Membrane

Adenosine receptors; A1 & A2a (Rattus norvegicus), sequence (P30543 whole entry, looked up, one chain of several): as the sequence (P30543 whole entry) above

`OC[C@H]1O[C@@H](n2cnc3c(NN4CCCC4)ncnc32)[C@H](O)[C@@H]1O` (stereo in doubt) [listing 1 of 2 here] was tested, and the Ratio [1] was 350.

`OC[C@H]1O[C@@H](n2cnc3c(NN4CCCC4)ncnc32)[C@H](O)[C@@H]1O` (stereo in doubt) [listing 2 of 2 here] gave a Ki [2] of 8 nM and a Ki [3] of 2800 nM.

In the case of `CC(Nc1ncnc2c1ncn2[C@@H]1O[C@H](CO)[C@@H](O)[C@H]1O)[C@@H](O)c1ccccc1` (stereo not given in full), the Ki [2] is reported as 2.7 nM, the Ki [3] is reported as 390 nM and the Ratio [1] is reported as 144.

With `OC[C@H]1O[C@@H](n2cnc3c(NN4CCC(Sc5ccccc5)CC4)nc(Cl)nc32)[C@H](O)[C@@H]1O` the Ki [3] was 470 nM and the Ratio [1] was 522.

For `OC[C@@H](Cc1ccccc1)Nc1nc(Cl)nc2c1ncn2C1O[C@H](CO)[C@@H](O)[C@H]1O` (stereo not given in full), the Ki [2] was 452 nM and the Ki [3] was 10400 nM.

Work on `OC[C@H]1OC(n2cnc3c(NN4CCOCC4)nc(I)nc32)[C@H](O)[C@@H]1O` (stereo not given in full) yielded a Ki [2] of 113 nM and a Ki [3] of 19400 nM.

Work on `OC[C@@H](Cc1ccccc1)Nc1nc(I)nc2c1ncn2C1O[C@H](CO)[C@@H](O)[C@H]1O` (stereo not given in full) yielded a Ki [2] of 989 nM and a Displacement [4] of 49%.

For `OC[C@H](Cc1ccccc1)Nc1nc(I)nc2c1ncn2C1O[C@H](CO)[C@@H](O)[C@H]1O` (stereo not given in full), the Ki [2] was 23 nM and the Ki [3] was 1360 nM.

With `OC[C@H]1OC(n2cnc3c(NN4CCCCC4)nc(I)nc32)[C@H](O)[C@@H]1O` (stereo not given in full) the Ki [2] was 71 nM and the Ki [3] was 8630 nM.

Compound `OC[C@H]1O[C@@H](n2cnc3c(NN4CCOCC4)nc(Cl)nc32)[C@H](O)[C@@H]1O` has a Ki [2] of 4.89 nM, a Ki [3] of 1900 nM and a Ki [5] of 8 nM.

Work on `OC[C@H](Cc1ccccc1)Nc1nc(Cl)nc2c1ncn2C1O[C@H](CO)[C@@H](O)[C@H]1O` (stereo not given in full) yielded a Ki [2] of 2.41 nM and a Ki [3] of 492 nM.

`OC[C@H]1O[C@@H](n2cnc3c(NN4CCCCC4)nc(Cl)nc32)[C@H](O)[C@@H]1O` showed a Ki [2] of 3.55 nM and a Ki [3] of 936 nM.

`OC[C@H]1O[C@@H](n2cnc3c(NN4CCCC4)ncnc32)[C@H](O)[C@@H]1O` (stereo in doubt; 3) showed a Ki [2] of 8 nM and a Ki [3] of 2800 nM.

`OC[C@H]1OC(n2cnc3c(NN4CCOCC4)ncnc32)[C@H](O)[C@@H]1O` (stereo not given in full) was tested, and the Ki [2] was 15500 nM and the Displacement [4] was 36%.

`CC(C)C[C@H](CO)Nc1ncnc2c1ncn2C1O[C@H](CO)[C@@H](O)[C@H]1O` (stereo not given in full) showed a Ki [2] of 224 nM and a Ki [3] of 30300 nM.

Compound `OC[C@H]1O[C@@H](n2cnc3c(NN4CCCCC4)ncnc32)[C@H](O)[C@@H]1O` has a Ki [2] of 7.3 nM and a Displacement [4] of 29%.

With `CC(C)C[C@@H](CO)Nc1ncnc2c1ncn2C1O[C@H](CO)[C@@H](O)[C@H]1O` (stereo not given in full) the Ki [2] was 139 nM and the Displacement [6] was less than 10%.
